Literature values, collected in patent publication US5493006A, “Cyclic CRF analogs” (The Salk Institute for Biological Studies, priority 1993, dated 1996).
“Also recorded” adds a separate entry of the source. Ends that are not written are not given here.

Legend:
[1] = injected peripherally; background statement
[2] = test system: secretion of ACTH and β-END-LI; conditions: in vitro and in vivo; background statement

rCRF: rat CRF, a homologous, amidated hentetracontapeptide; same formula as human CRF (SEEPPISLDLTFHLLREVLEMARAEQLAQQAHSNRKLMEII-NH2; UniProt P01143 145-185, looked up)
lowering of blood pressure [1]: substantially lower blood pressure
stimulation of ACTH and β-endorphin-like activities (β-END-Li) [2]: stimulate ACTH and β-endorphin-like activities (β-END-Li) in vitro and in vivo

oCRF: ovine corticotropin releasing factor, a 41-residue amidated peptide (SQEPPISLDLTFHLLREVLEMTKADQLAQQAHSNRKLLDIA-NH2; UniProt P01142 148-188, looked up)
lowering of blood pressure [1]: lowers blood pressure; also recorded: substantially lower blood pressure
stimulation of ACTH and β-endorphin-like activities (β-END-Li) [2]: stimulates the secretion of ACTH and β-endorphin; also recorded: stimulate ACTH and β-endorphin-like activities (β-END-Li) in vitro and in vivo
